Read-outs that look alike come from different tables or passages of the source.
How the values were obtained:
[1] = tested on: Ctenocephalides felis
How it was run: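 Adult cat fleas (3–7 days post-emergence), 15 per flask in ≥4 replicates, exposed to a dried acetone residue at 1.26 μg/cm^2 on a Coatasil-treated glass flask base. Held at 25±1° C, 75±5% humidity; mortality (immobile or unable to right) scored at 8, 24 and/or 48 h.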

[2] = tested on: Rhipicephalus sanguineus; assay: Rapid screening protocol for topical application on brown dog ticks (% mortality)
Protocol: d) Rapid Screening Protocol for Topical Application on Brown Dog Ticks (Rhipicephalus sanguineus)
The aim of the test was to determine the presence of significant acaricidal activity in sample compounds or formulations when applied topically on brown dog ticks. A tick was defined as dead if it gave no apparent response when touched lightly and observed for 1 minute. To assess the experimental compound for acaricidal activity, a single dose level was chosen based on known results from previous experiments with a commercially available active reference compound. Both permethrin and fipronil were employed as reference compounds. The insect species tested was the Brown Dog Tick (Rhipicephalus sanguineus). Mixed sex adult ticks were used for tests. The strain used was cultured by von Berky Veterinary Services, Woody Point, QLD, AU and supplied as unfed adult ticks (mixed sex). Ticks were maintained in controlled conditions (temp. 18°±2° C., humidity 75±5% RH).
Test compounds (formulations or active ingredients) were stored in a refrigerator (5±1° C.) unless otherwise specified. Temperature was maintained at 25±1° C. and the humidity was ambient. The screening dose chosen was higher than that known to kill 90% of insects (LD90) using the reference compound. In the case of topical application of active compounds on adult ticks, the reference compound was fipronil and the dose chosen was 10 μg of active per tick (=10 μg of fipronil/1 μl of acetone). Ticks were each treated on the abdomen with 1 μL of a single dose level of test sample in acetone; ten ticks were treated with solvent only (acetone) in each test. Tests were replicated 4 times (total of 40 ticks treated). Ticks were held in recovery containers maintained under appropriate rearing conditions for 24 hours. Mortality resulting from the treatments was recorded at 24 hours. Pooled 24 hour mortality data were converted to percentages.

Compound | C. felis Mortality (%) 8 h [1] [%] | C. felis Mortality (%) 24 h [1] [%] | R. sanguineus Mortality (%) 24 h ([2]; data from laboratory 2) [%] | further results
CC(=NN(Cc1ccccc1)c1ccccc1)c1cc(Cl)ccc1NS(=O)(=O)C(F)(F)F [Compound 22] | 98 | 100 | – | R. sanguineus Mortality (%) 24 h ([2]; data from laboratory 1): 33^A %
CCC(=NN(Cc1ccccc1)c1ccccc1)c1cc(Cl)ccc1NS(=O)(=O)C(F)(F)F [Compound 24] | 100 | 100 | – | R. sanguineus Mortality (%) 24 h ([2]; data from laboratory 1): 28^A %
CC(=NN(c1ccccc1)C(C)C)c1cc(Cl)ccc1NS(=O)(=O)C(F)(F)F [Compound 28] | – | 100 | 68 | C. felis Mortality (%) 48 h [1]: 100%
CC(=NN(c1ccc(Cl)cc1)C(C)C)c1cc(Cl)ccc1NS(=O)(=O)C(F)(F)F [Compound 33] | – | 86 | 88 | C. felis Mortality (%) 48 h [1]: 100%
CCN(N=C(C)c1cc(Cl)ccc1NS(=O)(=O)C(F)(F)F)c1ccccc1Cl [Compound 37] | – | 89 | 83 | C. felis Mortality (%) 48 h [1]: 100%
CCN(N=C(C)c1cc(Cl)ccc1N(C)S(=O)(=O)C(F)(F)F)c1ccccc1F [Compound 44] | – | 3 | 3 | C. felis Mortality (%) 48 h [1]: 22%
CC(=NN(c1ccc(C(F)(F)F)cc1)C(C)C)c1cc(Cl)ccc1NS(=O)(=O)C(F)(F)F [Compound 47] | 14 | 100 | 58 | –
CC(=NN(c1cccc(Cl)c1)C(C)C)c1cc(Cl)ccc1NS(=O)(=O)C(F)(F)F [Compound 50] | 61 | 100 | 68 | –
CCCN(N=C(C)c1cc(Cl)ccc1NS(=O)(=O)C(F)(F)F)c1ccc(Br)cc1 [Compound 53] | 71 | 100 | 50 | –
CC(=NN(c1ccccc1Cl)C(C)C)c1cc(Cl)ccc1NS(=O)(=O)C(F)(F)F [Compound 56] | 51 | 99 | 45 | –
CC(=NN(C)c1ccc(C(F)(F)F)cc1)c1cc(Cl)ccc1NS(=O)(=O)C(F)(F)F [Compound 65, N-[2-[1-(N′-methyl-(4-trifluoromethyl)phenyl)hydrazono]-ethyl-4-chlorophenyl]-trifluoromethanesulfonamide] | 100 | 100 | 100 | –
CC(=NN(c1cccc(Cl)c1Cl)C(C)C)c1cc(Cl)ccc1NS(=O)(=O)C(F)(F)F [Compound 66] | 18 | 100 | 48 | –
CC(=NN(c1cccc(F)c1)C(C)C)c1cc(Cl)ccc1NS(=O)(=O)C(F)(F)F [Compound 77] | 91 | 100 | 73 | –
CCCN(N=C(C)c1cc(Cl)ccc1NS(=O)(=O)C(F)(F)F)c1ccc(Cl)c(Cl)c1 [Compound 97] | 52 | 100 | 73 | –
CCCN(N=C(C)c1cc(Cl)ccc1NS(=O)(=O)C(F)(F)F)c1cc(Cl)cc(Cl)c1 [Compound 98] | 19 | 98 | 60 | –
CCCN(N=C(C)c1cc(Cl)ccc1NS(=O)(=O)C(F)(F)F)c1c(Cl)cccc1Cl [Compound 103] | 56 | 100 | 40 | –
CCCN(N=C(C)c1cc(Cl)ccc1NS(=O)(=O)C(F)(F)F)c1ccc(F)cc1 [Compound 104] | 16 | 100 | 75 | –
CC(=NN(C)c1ccccc1)c1cc(Cl)ccc1N(C)S(=O)(=O)C(F)(F)F [Compound 109, N-[2-[1-(N′-methyl-N′-phenyl)hydrazono]ethyl-4-chlorophenyl]-N-methyl-trifluoromethanesulfonamide] | 73 | 100 | 8 | –
CCOCN(c1ccc(Cl)cc1C(C)=NN(C)c1ccccc1)S(=O)(=O)C(F)(F)F [Compound 112] | 99 | 100 | 5 | –
CC(=NN(C)c1ccccc1)c1ccc(C(F)(F)F)cc1NS(=O)(=O)C(F)(F)F [Compound 120, N-[2-[1-(N′-methyl-N′-phenyl)hydrazono]-ethyl-5-trifluoromethylphenyl]-trifluoromethanesulfonamide] | 28 | 83 | 58 | –
CC(=NN(C)C)c1ccccc1NS(=O)(=O)C(F)(F)F [Compound 124] | 59 | 94 | 88 | –
CCC(=NN1CCCCCC1)c1cc(Cl)ccc1NS(=O)(=O)C(F)(F)F [Compound 131] | 43 | 100 | 98 | –
C/C(=N\N(CCC#N)C(=O)C(C)C)c1cc(Cl)ccc1NS(=O)(=O)C(F)(F)F [Compound 223] | 45 | 100 | 100 | –
O=S(=O)(Nc1ccc(Cl)cc1C1=NN(c2ccccc2F)CC1)C(F)(F)F [Compound 228] | – | – | – | C. felis Mortality (%) 8 h ([1]; 8 h, data from laboratory 1): 14%; C. felis Mortality (%) 24 h ([1]; 24 h, data from laboratory 1): 59%
O=S(=O)(Nc1ccc(Cl)cc1C1=NN(c2ccccc2)CC1)C(F)(F)F [Compound 229, N-[4-Chloro-2-(1-phenyl-4,5-dihydro-1H-pyrazol-3-yl)-phenyl]-trifluoromethanesulfonamide] | – | – | – | C. felis Mortality (%) 8 h ([1]; 8 h): 18%; C. felis Mortality (%) 24 h ([1]; 24 h): 37%
O=S(=O)(Nc1ccc(Cl)cc1-c1ccn(-c2ccccc2)n1)C(F)(F)F [Compound 230, N-[4-Chloro-2-[1-phenyl-1H-pyrazol-3-yl]-phenyl]-trifluoromethanesulfonamide] | – | – | – | C. felis Mortality (%) 8 h ([1]; 8 h): 10%; C. felis Mortality (%) 24 h ([1]; 24 h): 43%
O=S(=O)(Nc1ccc(Cl)cc1C1=NN(c2cccc(Cl)c2)CC1)C(F)(F)F [Compound 231] | – | – | – | C. felis Mortality (%) 8 h ([1]; 8 h, data from laboratory 1): 12%; C. felis Mortality (%) 24 h ([1]; 24 h, data from laboratory 1): 42%
O=S(=O)(Nc1ccc(Cl)cc1C1=NN(c2cccc(F)c2)CC1)C(F)(F)F [Compound 232] | – | – | – | C. felis Mortality (%) 8 h ([1]; 8 h, data from laboratory 1): 7%; C. felis Mortality (%) 24 h ([1]; 24 h, data from laboratory 1): 27%
O=S(=O)(Nc1ccc(Cl)cc1C1=NN(c2ccc(F)cc2)CC1)C(F)(F)F [Compound 233] | – | – | – | C. felis Mortality (%) 8 h ([1]; 8 h, data from laboratory 1): 9%; C. felis Mortality (%) 24 h ([1]; 24 h, data from laboratory 1): 28%
O=S(=O)(Nc1ccc(Cl)cc1C1=NN(c2ccc(Cl)cc2)CC1)C(F)(F)F [Compound 234] | – | – | – | C. felis Mortality (%) 8 h ([1]; 8 h, data from laboratory 1): 14%; C. felis Mortality (%) 24 h ([1]; 24 h, data from laboratory 1): 41%
